Literature values as cited in patent US7534787B2, “Method of treating diseases and conditions associated with an altered level of amyloid beta peptides and new enolcarboxamide compounds” (Boehringer Ingelheim International GmbH, priority 2004, dated 2009).

Test system: Aβ42
Conditions: according to table 3 of WO 01/78721

SMILES | Aβ42 lowering activity
Cc1cc(NC(=O)C2=C(O)c3ccccc3S(=O)(=O)N2C)no1 [isoxicam] | do not lower or even increase the Aβ42 level
CN1C(C(=O)Nc2ccccn2)=C(O)c2ccccc2S1(=O)=O [piroxicam] | do not lower or even increase the Aβ42 level
